According to ChEMBL document CHEMBL1201862, “PubChem BioAssay data set” (2004):
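Five concentrations, 48 hours, 96-well plates. Abbreviation: GI50, concentration required for 50% inhibition of growth.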 Activity calls are given as the source filed them. Rule as the data show it: active = GI50 up to about 1.1 µM and inactive = higher.

Experiments:
Experiment in all cases: DTP human tumour cell line panel, 48 h
RPMI-8226 = tested on: RPMI-8226
IGROV-1 = tested on: IGROV-1
DU-145 = tested on: DU-145
T47D = tested on: T47D
786-0 = tested on: 786-0
TK-10 = tested on: TK-10
HCC 2998 = tested on: HCC 2998
ACHN = tested on: ACHN
SF-268 = tested on: SF-268
SK-MEL-28 = tested on: SK-MEL-28
A549 = tested on: A549
OVCAR-5 = tested on: OVCAR-5
CAKI-1 = tested on: CAKI-1
HCT-15 = tested on: HCT-15
SNB-75 = tested on: SNB-75
HCT-116 = tested on: HCT-116
HOP-92 = tested on: HOP-92
SR = tested on: SR
NCI-H226 = tested on: NCI-H226
SN12C = tested on: SN12C
UO-31 = tested on: UO-31
RXF 393 = tested on: RXF 393
OVCAR-8 = tested on: OVCAR-8
SW-620 = tested on: SW-620
OVCAR-4 = tested on: OVCAR-4
A498 = tested on: A498
SK-MEL-5 = tested on: SK-MEL-5
U-251 = tested on: U-251
EKVX = tested on: EKVX
SK-OV-3 = tested on: SK-OV-3
UACC-62 = tested on: UACC-62
HT-29 = tested on: HT-29
CCRF-CEM = tested on: CCRF-CEM
NCI-H460 = tested on: NCI-H460
SF-295 = tested on: SF-295
NCI/ADR-RES = tested on: NCI/ADR-RES
Hs-578T = tested on: Hs-578T
MDA-MB-231 = tested on: MDA-MB-231
UACC-257 = tested on: UACC-257
K562 = tested on: K562
NCI-H23 = tested on: NCI-H23
SNB-19 = tested on: SNB-19
NCI-H522 = tested on: NCI-H522
Malme-3M = tested on: Malme-3M
HL-60 = tested on: HL-60
MDA-N = tested on: MDA-N
LOX IMVI = tested on: LOX IMVI
HOP-62 = tested on: HOP-62
MOLT-4 = tested on: MOLT-4
SK-MEL-2 = tested on: SK-MEL-2
MDA-MB-435 = tested on: MDA-MB-435
SF-539 = tested on: SF-539
COLO 205 = tested on: COLO 205
PC-3 = tested on: PC-3
KM12 = tested on: KM12
MCF7 = tested on: MCF7
M14 = tested on: M14

Measured: GI50

N=C1N(/N=C/c2ccccn2)/C(=N\c2ccccc2)C(=S)N1c1ccccc1
inactive: RPMI-8226 > 100 µM | IGROV-1 5.05 µM | DU-145 3.31 µM | T47D 5.5 µM | 786-0 2.94 µM | TK-10 11 µM | HCC 2998 10.2 µM | ACHN 2.55 µM | SF-268 5.12 µM | SK-MEL-28 11 µM | A549 5.51 µM | OVCAR-5 4.74 µM | CAKI-1 6.44 µM | SNB-75 15.3 µM | HCT-116 2.87 µM | HOP-92 10.8 µM | SR > 100 µM | NCI-H226 13.5 µM | SN12C 5.31 µM | UO-31 4.37 µM | RXF 393 3.15 µM | OVCAR-8 3.6 µM | SW-620 3.47 µM | OVCAR-4 11.7 µM | A498 19.4 µM | SK-MEL-5 4.48 µM | U-251 8.18 µM | EKVX 3.41 µM | SK-OV-3 16.6 µM | UACC-62 1.17 µM | HT-29 2.97 µM | CCRF-CEM 2.05 µM | NCI-H460 4.15 µM | SF-295 5.81 µM | NCI/ADR-RES 2.83 µM | Hs-578T 11.5 µM | MDA-MB-231 6.7 µM | UACC-257 9.27 µM | K562 3.33 µM | NCI-H23 6.07 µM | SNB-19 15.4 µM | NCI-H522 1.92 µM | Malme-3M 10.9 µM | HL-60 1.85 µM | MDA-N 3.56 µM | LOX IMVI 2.22 µM | HOP-62 10.2 µM | MOLT-4 > 100 µM | SK-MEL-2 2.14 µM | MDA-MB-435 5.41 µM | SF-539 3.77 µM | COLO 205 1.42 µM | PC-3 3.57 µM | KM12 4.01 µM
2.54 µM: HCT-15

CC(C)=Cc1cc2c(cc1O)CCC1C2CC[C@@]2(C)C1CC[C@@H]2O (stereo partly drawn)
8.89 µM: HCT-15
inactive: RPMI-8226 5.14 µM | IGROV-1 12.8 µM | DU-145 14.3 µM | MCF7 14.4 µM | T47D 12.6 µM | 786-0 12.4 µM | TK-10 3.16 µM | M14 10.4 µM | HCC 2998 14.1 µM | ACHN 14 µM | SF-268 16.7 µM | SK-MEL-28 15.5 µM | A549 12.5 µM | OVCAR-5 15.7 µM | CAKI-1 13.5 µM | SNB-75 3.56 µM | HCT-116 10.3 µM | HOP-92 21.3 µM | SR 3.18 µM | NCI-H226 8.81 µM | SN12C 14.7 µM | UO-31 13.3 µM | RXF 393 6.01 µM | OVCAR-8 17.9 µM | SW-620 8.53 µM | OVCAR-4 30.3 µM | A498 16.4 µM | SK-MEL-5 6.24 µM | U-251 10.4 µM | EKVX 15.6 µM | SK-OV-3 14.9 µM | HT-29 14.9 µM | CCRF-CEM 12.9 µM | NCI-H460 12 µM | SF-295 2.26 µM | NCI/ADR-RES 7.66 µM | Hs-578T 18.5 µM | MDA-MB-231 16.3 µM | UACC-257 14.9 µM | K562 3.75 µM | NCI-H23 15.8 µM | SNB-19 11.6 µM | NCI-H522 5.35 µM | Malme-3M 10.4 µM | HL-60 15.2 µM | MDA-N 2.44 µM | LOX IMVI 3.97 µM | MOLT-4 6.41 µM | SK-MEL-2 14.8 µM | COLO 205 18.4 µM | PC-3 11.7 µM | KM12 11.8 µM
